Test results from PMC7224190, “Pharmacological inhibition of PRMT7 links arginine monomethylation to the cellular stress response” (Nature Communications, 2020).

Legend:
Test in all cases: biochemical
Conditions in all cases: read-out: % of control remaining
[1] = target: NSD1 (Homo sapiens, UniProt Q96L73); design: radiometric methyltransferase selectivity assay with tritiated SAM, per cent activity
Experimental: (§1) The methyltransferase selectivity was assessed at two compound concentrations of 1 and 10 μM by radiometric assays using tritiated-SAM. For methyltransferases: MLL1, MLL3, EZH1 (PRC2), and EZH2 (PRC2), G9a, GLP, SUV39H1, SUV39H2, SUV420H1, SUV420H2, SETD2, SETD8, SETDB1, SETD7, PRMT1, PRMT3, PRMT4, PRMT5/ MEP50 complex, PRMT6, PRMT7, PRMT8, PRMT9, PRDM9, SMYD2, SMYD3, DNMT1, and BCDIN3D the incorporation of a tritium-labeled methyl group into biotinylated substrate was monitored using scintillation proximity assay (SPA). Briefly, a 10 μL reaction containing ^3H-SAM and substrate at concentrations close to the apparent Km values for each enzyme (balanced conditions) was prepared. The reactions were quenched with 10 μL of 7.5 M guanidine hydrochloride; 180 μL of 20 mM Tris buffer (pH 8.0) were added, and the mixture was transferred to a 96-well FlashPlate and incubated for 1 h. The counts per minute (CPM) was measured on a TopCount plate reader. The CPM in the absence of compound or enzyme was defined as 100% activity and background (0%), respectively, for each dataset[74]–[76]. Selectivity of SGC8158 against 342 kinases was evaluated in a kinase panel TR-FRET assay at 1 and 0.1 μM compound in duplicates as described before. Briefly, tagged kinases were incubated with compound and staurosporine-based fluorescent probe where the binding was detected using Tb conjugated anti-tag antibody energy transfer to the probe. Excitation wavelength was 337 nm and fluorescent emission signal was measured for Tb (486 nm) and fluorescent probe (BODIPY, 515 nm). Specific and non-specific binding was determined in the absence and presence of unlabeled staurosporine.

[2] = target: SMYD2 (Homo sapiens, UniProt Q9NRG4); design: radiometric methyltransferase selectivity assay with tritiated SAM, per cent activity
Experimental: as §1

[3] = target: METTL3-14 (Homo sapiens, UniProt Q86U44); design: radiometric methyltransferase selectivity assay with tritiated SAM, per cent activity
Experimental: as §1

[4] = target: T1, MLL3 (Homo sapiens, UniProt Q8NEZ4); design: radiometric methyltransferase selectivity assay with tritiated SAM, per cent activity
T1 construct: gene KMT2C
Experimental: as §1

[5] = target: PRMT5-MEP50 (Homo sapiens, UniProt O14744); design: radiometric methyltransferase selectivity assay with tritiated SAM, per cent activity
Experimental: as §1

[6] = target: T2, PRMT7 (Homo sapiens, UniProt Q9NVM4); design: full-length; radiometric methyltransferase selectivity assay with tritiated SAM, per cent activity
T2 sequence (Q9NVM4 1-692): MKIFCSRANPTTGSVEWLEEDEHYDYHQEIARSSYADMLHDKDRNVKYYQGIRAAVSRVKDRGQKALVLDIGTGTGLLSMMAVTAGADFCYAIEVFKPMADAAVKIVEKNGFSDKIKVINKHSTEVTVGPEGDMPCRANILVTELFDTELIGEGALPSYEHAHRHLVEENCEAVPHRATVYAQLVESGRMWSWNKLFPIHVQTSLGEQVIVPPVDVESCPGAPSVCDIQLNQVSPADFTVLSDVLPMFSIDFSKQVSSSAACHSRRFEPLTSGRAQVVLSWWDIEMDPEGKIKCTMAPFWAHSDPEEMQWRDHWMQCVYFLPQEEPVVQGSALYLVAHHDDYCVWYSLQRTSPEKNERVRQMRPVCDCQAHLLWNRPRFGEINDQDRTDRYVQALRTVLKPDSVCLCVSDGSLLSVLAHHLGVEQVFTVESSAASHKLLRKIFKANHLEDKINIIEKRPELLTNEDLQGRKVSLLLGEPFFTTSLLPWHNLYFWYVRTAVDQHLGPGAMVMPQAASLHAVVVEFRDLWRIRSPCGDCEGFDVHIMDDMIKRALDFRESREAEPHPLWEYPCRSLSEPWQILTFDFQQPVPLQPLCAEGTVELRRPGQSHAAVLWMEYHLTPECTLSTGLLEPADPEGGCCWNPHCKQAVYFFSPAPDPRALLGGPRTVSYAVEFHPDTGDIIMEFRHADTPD
Experimental: as §1

[7] = target: PRC2-EZH2 (Homo sapiens, UniProt Q15910); design: radiometric methyltransferase selectivity assay with tritiated SAM, per cent activity

T1 sequence (Q8NEZ4 whole entry): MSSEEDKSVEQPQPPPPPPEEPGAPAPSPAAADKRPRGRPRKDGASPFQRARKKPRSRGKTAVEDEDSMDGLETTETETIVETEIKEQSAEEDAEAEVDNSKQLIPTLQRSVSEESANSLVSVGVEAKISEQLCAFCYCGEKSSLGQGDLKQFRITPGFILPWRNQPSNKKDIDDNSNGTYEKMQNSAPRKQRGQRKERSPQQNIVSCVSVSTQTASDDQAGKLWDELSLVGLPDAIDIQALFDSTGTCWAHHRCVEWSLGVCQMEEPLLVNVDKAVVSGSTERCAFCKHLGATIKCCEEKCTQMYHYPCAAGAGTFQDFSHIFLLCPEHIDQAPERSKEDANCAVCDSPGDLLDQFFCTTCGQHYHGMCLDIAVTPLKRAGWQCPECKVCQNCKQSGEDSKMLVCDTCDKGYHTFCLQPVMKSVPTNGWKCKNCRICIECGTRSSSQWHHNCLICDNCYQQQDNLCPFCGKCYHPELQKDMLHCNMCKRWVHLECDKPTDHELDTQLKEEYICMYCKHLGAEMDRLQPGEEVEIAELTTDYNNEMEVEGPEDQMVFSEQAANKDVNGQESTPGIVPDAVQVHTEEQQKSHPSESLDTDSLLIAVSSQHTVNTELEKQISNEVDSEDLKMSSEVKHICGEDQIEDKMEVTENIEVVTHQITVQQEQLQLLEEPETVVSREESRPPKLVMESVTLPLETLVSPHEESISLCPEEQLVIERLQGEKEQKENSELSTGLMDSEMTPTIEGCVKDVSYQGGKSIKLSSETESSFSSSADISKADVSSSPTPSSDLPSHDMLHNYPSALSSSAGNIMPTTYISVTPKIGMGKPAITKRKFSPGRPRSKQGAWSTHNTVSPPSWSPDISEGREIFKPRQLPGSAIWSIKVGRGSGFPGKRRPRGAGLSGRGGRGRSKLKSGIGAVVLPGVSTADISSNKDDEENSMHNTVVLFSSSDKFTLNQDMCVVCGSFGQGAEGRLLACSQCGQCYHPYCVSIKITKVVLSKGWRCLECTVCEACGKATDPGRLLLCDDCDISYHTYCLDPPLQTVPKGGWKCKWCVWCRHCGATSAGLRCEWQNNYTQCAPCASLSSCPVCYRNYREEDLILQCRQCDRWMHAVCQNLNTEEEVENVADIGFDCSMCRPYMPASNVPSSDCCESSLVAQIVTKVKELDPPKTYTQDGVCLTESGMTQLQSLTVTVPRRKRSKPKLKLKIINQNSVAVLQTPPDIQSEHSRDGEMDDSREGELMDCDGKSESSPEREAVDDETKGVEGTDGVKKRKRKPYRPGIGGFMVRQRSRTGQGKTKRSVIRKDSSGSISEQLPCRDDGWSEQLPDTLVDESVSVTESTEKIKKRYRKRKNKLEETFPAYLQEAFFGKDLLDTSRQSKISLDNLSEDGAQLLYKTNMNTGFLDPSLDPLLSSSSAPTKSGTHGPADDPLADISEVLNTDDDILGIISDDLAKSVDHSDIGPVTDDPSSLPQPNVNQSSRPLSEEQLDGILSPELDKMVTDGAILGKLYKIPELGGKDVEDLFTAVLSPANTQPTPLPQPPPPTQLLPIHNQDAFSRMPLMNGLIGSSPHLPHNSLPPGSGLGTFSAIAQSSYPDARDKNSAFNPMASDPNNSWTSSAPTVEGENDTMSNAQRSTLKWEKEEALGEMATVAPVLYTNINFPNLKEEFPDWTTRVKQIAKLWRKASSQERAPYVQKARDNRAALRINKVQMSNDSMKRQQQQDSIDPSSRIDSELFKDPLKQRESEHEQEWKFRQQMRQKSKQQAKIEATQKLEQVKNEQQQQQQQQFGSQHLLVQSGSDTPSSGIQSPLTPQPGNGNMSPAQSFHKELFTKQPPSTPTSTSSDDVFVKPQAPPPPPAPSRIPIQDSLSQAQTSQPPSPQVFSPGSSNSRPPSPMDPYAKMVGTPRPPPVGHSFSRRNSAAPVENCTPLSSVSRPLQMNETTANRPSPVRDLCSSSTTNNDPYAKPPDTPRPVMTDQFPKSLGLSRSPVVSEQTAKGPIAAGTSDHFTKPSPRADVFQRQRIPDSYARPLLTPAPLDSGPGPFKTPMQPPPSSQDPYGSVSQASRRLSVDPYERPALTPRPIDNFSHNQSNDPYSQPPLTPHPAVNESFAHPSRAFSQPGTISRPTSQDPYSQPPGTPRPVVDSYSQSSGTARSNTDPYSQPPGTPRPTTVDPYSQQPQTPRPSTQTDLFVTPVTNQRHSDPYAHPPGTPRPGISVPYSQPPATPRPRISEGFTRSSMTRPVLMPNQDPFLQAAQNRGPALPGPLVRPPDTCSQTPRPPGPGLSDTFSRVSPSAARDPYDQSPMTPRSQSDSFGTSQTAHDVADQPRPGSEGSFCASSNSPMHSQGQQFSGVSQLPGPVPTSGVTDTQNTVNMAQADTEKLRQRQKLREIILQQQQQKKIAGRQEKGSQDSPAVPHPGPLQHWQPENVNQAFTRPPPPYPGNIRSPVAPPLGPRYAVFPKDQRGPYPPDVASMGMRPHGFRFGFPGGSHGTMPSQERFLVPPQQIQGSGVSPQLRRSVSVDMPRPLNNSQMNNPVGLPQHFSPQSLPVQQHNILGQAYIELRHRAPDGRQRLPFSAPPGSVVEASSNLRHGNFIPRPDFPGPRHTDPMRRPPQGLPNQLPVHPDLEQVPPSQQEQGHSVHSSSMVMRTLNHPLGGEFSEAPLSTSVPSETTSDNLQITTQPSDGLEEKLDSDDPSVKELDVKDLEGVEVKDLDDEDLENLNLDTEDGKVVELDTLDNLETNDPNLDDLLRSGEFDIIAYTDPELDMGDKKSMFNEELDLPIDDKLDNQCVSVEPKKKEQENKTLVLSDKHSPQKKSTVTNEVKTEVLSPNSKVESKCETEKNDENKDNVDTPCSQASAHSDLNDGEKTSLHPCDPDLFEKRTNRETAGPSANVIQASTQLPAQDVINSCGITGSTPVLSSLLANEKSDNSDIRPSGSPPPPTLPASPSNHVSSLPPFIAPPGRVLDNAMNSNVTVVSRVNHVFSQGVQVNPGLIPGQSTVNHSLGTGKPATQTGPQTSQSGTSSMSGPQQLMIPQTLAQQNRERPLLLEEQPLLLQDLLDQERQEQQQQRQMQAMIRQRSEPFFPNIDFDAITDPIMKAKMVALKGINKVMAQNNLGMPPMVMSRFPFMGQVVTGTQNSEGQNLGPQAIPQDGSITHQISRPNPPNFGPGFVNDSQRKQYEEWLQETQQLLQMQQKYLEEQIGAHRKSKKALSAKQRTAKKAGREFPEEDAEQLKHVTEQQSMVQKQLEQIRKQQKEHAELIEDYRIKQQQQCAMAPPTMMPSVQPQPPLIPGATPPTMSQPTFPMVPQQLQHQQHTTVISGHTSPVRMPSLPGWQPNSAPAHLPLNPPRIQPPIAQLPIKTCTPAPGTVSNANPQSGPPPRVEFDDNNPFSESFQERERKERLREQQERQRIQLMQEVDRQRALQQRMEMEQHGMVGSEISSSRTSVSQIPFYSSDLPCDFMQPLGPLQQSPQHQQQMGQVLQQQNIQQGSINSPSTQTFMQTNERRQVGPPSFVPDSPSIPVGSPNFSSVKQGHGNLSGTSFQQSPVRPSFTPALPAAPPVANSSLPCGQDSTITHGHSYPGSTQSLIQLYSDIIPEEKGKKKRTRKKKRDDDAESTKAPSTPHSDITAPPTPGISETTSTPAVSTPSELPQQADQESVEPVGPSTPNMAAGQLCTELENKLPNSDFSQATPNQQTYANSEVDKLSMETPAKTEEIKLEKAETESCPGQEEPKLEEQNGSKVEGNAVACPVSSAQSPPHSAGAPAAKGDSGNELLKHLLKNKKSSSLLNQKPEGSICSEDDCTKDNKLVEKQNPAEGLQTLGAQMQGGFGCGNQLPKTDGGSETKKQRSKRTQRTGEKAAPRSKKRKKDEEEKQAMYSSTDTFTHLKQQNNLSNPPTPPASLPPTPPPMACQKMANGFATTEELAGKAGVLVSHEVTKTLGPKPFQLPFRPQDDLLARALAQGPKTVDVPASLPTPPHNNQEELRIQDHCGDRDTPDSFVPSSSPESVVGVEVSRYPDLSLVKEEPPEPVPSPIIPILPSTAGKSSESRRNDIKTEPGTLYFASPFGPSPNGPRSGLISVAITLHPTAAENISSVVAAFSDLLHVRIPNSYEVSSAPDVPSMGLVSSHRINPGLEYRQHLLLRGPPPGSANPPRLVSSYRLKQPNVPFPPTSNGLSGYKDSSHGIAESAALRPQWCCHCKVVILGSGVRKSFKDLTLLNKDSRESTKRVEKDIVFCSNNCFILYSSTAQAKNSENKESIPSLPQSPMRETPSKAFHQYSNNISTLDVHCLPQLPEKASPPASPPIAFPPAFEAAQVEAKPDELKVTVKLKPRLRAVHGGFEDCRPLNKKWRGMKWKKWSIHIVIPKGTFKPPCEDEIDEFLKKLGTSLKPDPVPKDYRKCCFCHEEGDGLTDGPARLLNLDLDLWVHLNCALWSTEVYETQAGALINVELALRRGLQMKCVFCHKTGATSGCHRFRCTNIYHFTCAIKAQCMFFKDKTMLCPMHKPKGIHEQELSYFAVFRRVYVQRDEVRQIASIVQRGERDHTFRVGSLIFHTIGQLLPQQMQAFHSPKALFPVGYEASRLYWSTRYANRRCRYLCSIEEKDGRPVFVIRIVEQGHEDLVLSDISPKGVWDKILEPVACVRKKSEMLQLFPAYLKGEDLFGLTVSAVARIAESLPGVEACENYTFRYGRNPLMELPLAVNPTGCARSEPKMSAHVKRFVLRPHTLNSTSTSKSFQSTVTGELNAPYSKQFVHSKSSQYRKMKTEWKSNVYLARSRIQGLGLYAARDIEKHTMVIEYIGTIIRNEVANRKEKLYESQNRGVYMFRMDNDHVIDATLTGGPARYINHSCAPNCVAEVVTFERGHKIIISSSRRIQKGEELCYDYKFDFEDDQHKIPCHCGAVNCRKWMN

| SMILES | remaining activity at 1 µM [1] [%] | remaining activity at 10 µM [1] [%] | remaining activity at 1 µM [2] [%] | remaining activity at 10 µM [2] [%] | remaining activity at 1 µM [3] [%] | remaining activity at 10 µM [3] [%] | remaining activity at 1 µM [4] [%] | remaining activity at 10 µM [4] [%] | remaining activity at 1 µM [5] [%] | remaining activity at 10 µM [5] [%] | remaining activity at 1 µM [6] [%] | remaining activity at 10 µM [6] [%] | remaining activity at 1 µM [7] [%] | remaining activity at 10 µM [7] [%] |
| --- | --- | --- | --- | --- | --- | --- | --- | --- | --- | --- | --- | --- | --- | --- |
| CC1(C)O[C@@H]2[C@H](O1)[C@@H](CSCCCCNCc1cccc(-c3ccc(Cl)cc3)c1)O[C@H]2n1cnc2c(N)ncnc21 [SGC8158N] | 99 | 98 | 105 | 104 | 87 | 73 | 99 | 100 | 101 | 91 | 95 | 75 | 93 | 88 |
| Nc1ncnc2c1ncn2[C@@H]1O[C@H](CSCCCCNCc2cccc(-c3ccc(Cl)cc3)c2)[C@@H](O)[C@H]1O [SGC8158] | 104 | 99 | 101 | 84 | 97 | 84 | 105 | 105 | 15 | 2 | 2 | 0 | 105 | 94 |
